The test has as its target 4-aminobutyrate aminotransferase, mitochondrial (Sus scrofa, UniProt P80147). Nature of the test: Compound was tested for the inhibitory effect against Gamma-amino-N-butyrate transaminase from pig brain.

Sequence of 4-aminobutyrate aminotransferase, mitochondrial (P80147 whole entry): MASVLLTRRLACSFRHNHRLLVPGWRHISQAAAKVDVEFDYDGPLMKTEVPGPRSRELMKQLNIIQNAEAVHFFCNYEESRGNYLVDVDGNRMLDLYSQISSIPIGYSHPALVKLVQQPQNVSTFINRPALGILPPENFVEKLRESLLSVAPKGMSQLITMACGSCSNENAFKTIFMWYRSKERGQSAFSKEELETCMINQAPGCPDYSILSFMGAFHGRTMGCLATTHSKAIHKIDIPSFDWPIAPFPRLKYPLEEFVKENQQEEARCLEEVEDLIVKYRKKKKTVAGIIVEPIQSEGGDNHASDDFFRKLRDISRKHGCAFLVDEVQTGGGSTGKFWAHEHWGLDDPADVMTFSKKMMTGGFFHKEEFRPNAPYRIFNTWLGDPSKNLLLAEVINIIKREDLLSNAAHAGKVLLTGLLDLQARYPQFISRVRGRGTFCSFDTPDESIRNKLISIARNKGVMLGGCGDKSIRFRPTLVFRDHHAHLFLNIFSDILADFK

By Ki is commonly meant a measure of affinity in units of concentration, obtained from inhibition or displacement. A higher Ki goes with lower affinity. Compound `NC/C=C(\CO)C(=O)O` showed a Ki of 5 µM.
The compound `NC/C=C(\CCl)C(=O)O` registered an inhibitory constant (Ki) of 24 µM.
Take `NC/C=C(\CF)C(=O)O`: the Ki came out at 19 µM.

For the origin of these results see ChEMBL document CHEMBL1123179, “4-Amino-2-(substituted methyl)-2-butenoic acids: substrates and potent inhibitors of gamma-aminobutyric acid aminotransferase” (J Med Chem, 1986).
